Patent US20160030367A1, “Methods and Compositions for Preventing Metastasis and for Improving the Survival Time” (INSERM (INSTITUT NATIONAL DE LA SANTÉ ET DE LA RECHERCHE …, priority 2013, published 2016)
Starred links: 1 amine or outer side, 2 acyl side, 3 side chain; linkers in the order of their positions; H or OH if unused. Positions of bridges follow the written chain, without caps; N, C: chain ends. Non-standard residues stand in square brackets, D forms with d. Residues, ends and D or L forms follow the SMILES beside them. Chains are numbered I, II in the order given. Actinocin(9to1) = Cc1c2oc3c(C)ccc(C(=O)[*:1])c3nc-2c(C(=O)[*:2])c(N)c1=O; NMeV = CN[C@H](C(=O)O)C(C)C; Sar = CNCC(=O)O

How the values were obtained:
A375 melanoma cells [1] = assay: Invasion assay in Matrigel-coated Boyden chambers; format: cell-based; settings: 24 h; for cell invasion, dose dependence: indicated concentrations
Method: (§1) Boyden chambers (8.0-μm pores, Transwell, Corning, Inc.) were coated with 1 mg/ml Matrigel® (BD Biosciences) and were placed into 24-well chambers containing medium supplemented with 10% FCS. The cells were resuspended in FCS-starved medium, loaded into the top chamber. […] Results represent the average of triplicate samples from three independent experiments.

1205Lu melanoma cells [2] = assay: Invasion assay in Matrigel-coated Boyden chambers; format: cell-based, human; settings: for cell invasion, dose dependence: indicated concentrations
Method: as §1

p53 = assay: p53-dependent luciferase reporter assay (PG13-Luc) in melanoma cells; format: cell-based; settings: positive control
Method: Melanoma cells were seeded in 24-well dishes, and transient transfections were performed the following day using 2 μl Lipofectamine (Gibco-BRL, Eragny, France) and 0.3 mg of PG13-Luc, a p53-dependent firefly luciferase reporter gene in a 200-ml final volume. pCMVβGal plasmid was cotransfected to control the variability of transfection efficiency in the reporter assays. […] At 24 hours after stimulation, cells were harvested in 50 μl of lysis buffer and soluble extracts assayed for luciferase and β-galactosidase activities. All transfections were repeated several times using different plasmid preparations. Luciferase assays were carried out exactly as described (17).

WM9 melanoma cells = assay: Three-dimensional spheroid invasion into collagen; format: cell-based
Method: Melanoma spheroids were prepared using the liquid overlay method. Briefly, 500 μL of melanoma cells (20000/ml) were added to a 24-well plate coated with 1.5% agar (Difco, Sparks, Md.). Plates were left to incubate for 72 hours, by which time cells had organized into three-dimensional spheroids. Spheroids were then harvested using a P1000 pipette. The medium was removed and the spheroids were implanted into a gel of bovine collagen I containing MEM (Invitrogen). Normal melanoma medium was overlaid on top of the solidified collagen. After different time, pictures of the invading spheroids were taken using a Zeiss microscope.

[3] = test system: melanoma cells freshly isolated from patients; assay: Invasion assay in Matrigel-coated Boyden chambers; format: cell-based, human; settings: 10 mM, 24 h
Method: Different cancer cell lines were purchased from American Tissue Culture Collection (Molsheim, France). Cells were grown in RPMI 1640 (A375, WM9, SKMel28 and LNCap) or in DMEM medium (1205Lu, Mel501, Mewo and PC3) supplemented with 10% FCS and penicillin/streptomycin (100 U/ml/[…]) at 37° C. and 5% CO2. Patient melanoma cells were prepared as described (13). Briefly, biopsy was dissected and digested for 1-2 h with collagenase A (0.33 U/ml), dispase (0.85 U/ml) and Dnase I (144 U/ml) with rapid shaking at 37° C. Large debris were removed by filtration through a […] cell strainer. Viable cells were obtained by Ficoll gradient centrifugation.
Boyden chambers (8.0-μm pores, Transwell, Corning, Inc.) were coated with 1 mg/ml Matrigel® (BD Biosciences) and were placed into 24-well chambers containing medium supplemented with 10% FCS. The cells were resuspended in FCS-starved medium, loaded into the top chamber. 5 h later, cells adherent to the underside of the filters were fixed with 4% PFA and stained with 0.4% crystal violet, and five random fields at 20× magnification were counted. Results represent the average of triplicate samples from three independent experiments.

1205Lu melanoma cells [4] = assay: Pulmonary extravasation model in nude mice; settings: cells treated 24 h with 10 mM before tail vein injection; lungs after 24 h
melanomas cells = settings: long term treatment of 96 hours; cited from earlier work
total MMP activity = assay: Matrix metalloproteinase (MMP) activity measurement, fluorogenic substrate, culture media of 1205Lu cells; format: cell-based, human; settings: 10 mM, 24 h
Method: The culture media from stimulated cells were harvested and incubated in a 96-well plate with 0.2 mM of NH2-RA-Dpa-LGLP-AMC as a substrate for various times at 37° C. MMP activity was measured in quadruplicate by quantifying the emission at 460 nm (excitation at 390 nm) in the presence or absence of 10 μM CP471474. The enzyme activities were expressed in arbitrary units per mg of protein.

[5] = test system: Fibronectin, N-Cadherin, Vimentin, Sparc, Slug and Snail in 1205Lu melanoma cells; assay: Western blot of EMT markers; format: cell-based, human
Method: (§2) Protein were extracted in buffer containing TRIS-HCl pH7.5 50 mM, NaCl 15 mM, Triton X-100 1% and protease and phosphatase inhibitor 1X. Briefly, cell lysates (30 μg) were separated by SDS-PAGE, transferred onto a PVDF membrane (Millipore, Molsheim, France) and then exposed to the appropriate antibodies. Proteins were visualized with the ECL system from Amersham (Arlington, Heights, Ill., USA). The western blots shown are representative of at least 3 independent experiments.

AMPK = assay: Western blot in 1205Lu cells infected with Ad AMPK-DN or Ad control; format: cell-based, human
Method: Adenoviruses encoding a dominant negative form (Ad AMPK-DN) of subunits α1 and α2 of AMPK were a generous gift of Dr. Foufelle (INSERM, UMR-S 872, Paris, France). An adenovirus of which the expression cassette contains the major late promoter with no exogenous gene was used as control (Ad control). Adenoviruses were propagated in human embryonic kidney 293 cells and stored at −80° C.
as §2

A375 melanoma cells [6] = assay: Wound healing assay; format: cell-based
A375 melanoma cells [7] = assay: Migration assay in Boyden chambers; format: cell-based; settings: after 24 hours
From the text: as §1, with “Inc.)” for “Inc.) were coated with 1 mg/ml Matrigel® (BD Biosciences) and”

1205Lu melanoma cells [8] = assay: Wound healing assay; format: cell-based, human
[9] = test system: 1205Lu melanoma cells expressing luciferase; assay: Lung metastasis model, bioluminescence, nude mice; format: in vivo
Method: 1205Lu cells stably transfected with a vector encoding luciferase cells come from the team of Dr. Tartare-Deckert. A total of 1×10^6/150 μl PBS 1205Lu-Luc cells were injected via the tail vein of nude mice (Harlan Laboratories). […] To perform pulmonary extravasation analysis, 1.5×10^6 1205Lu cells were labelled for 1 h with CellTracker™ Green (Invitrogen) and injected via the tail vein of nude mice.

1205Lu melanoma cells [10] = assay: Migration assay in Boyden chambers; format: cell-based, human; settings: after 24 hours
From the text: as §1, with “Inc.)” for “Inc.) were coated with 1 mg/ml Matrigel® (BD Biosciences) and”

MMP-2 = assay: Type I collagen substrate zymography, 1205Lu culture media; format: cell-based, human
Method: (§3) The culture media from 1205Lu melanoma cells was concentrated in centrifugal filter unit and loaded on 10% SDS-polyacrylamide gels containing 1 mg/ml type I collagen (BD Biosciences). To estimated the protein concentration, 1205Lu melanoma cells were lysed in a buffer containing 1% Triton X-100, 150 mM NaCl, and 20 mM Tris, pH 7.4, supplemented with a protease inhibitor mixture (Complete EDTA-free, Roche Molecular Biochemicals) at 4° C. under agitation for 30 min. Lysates were clarified by brief spinning, and protein concentration was evaluated by bicinchoninic acid technique (BCA protein assay kit, Pierce). Following electrophoresis, proteins were renatured by incubating gels in 2.5% Triton X-100 for 2 h at 37° C. Gels were then washed three times in distilled water and incubated in substrate buffer (50 mM Tris, pH 7.4, and 1 mM CaCl2) at 37° C. for 24 h with gentle shaking Gels were stained with 0.1% Coomassie Blue R-250 (Sigma) and destained in 7% acetic acid. Enzymatic activities appear as cleared bands in a dark background.

MMP-9 = assay: as above; format: cell-based, human
Method: as §3

[11] = test system: Slug and N-cadherin in Mewo cells; assay: Western blot in Mewo cells infected with Adp53; format: cell-based; settings: re-expression of WT p53 by adenovirus infection
Method: as §2

[12] = cells transfected with siRNA against p53

NC(=O)c1ncn([C@@H]2O[C@H](CO)[C@@H](O)[C@H]2O)c1N [AICAR, 5-aminoimidazole-4-carboxamide-1-β-D-ribofuranoside]
cell invasion, dose dependence (A375 melanoma cells [1]): decreases cell invasion in dose dependent manner | cell invasion, dose dependence (1205Lu melanoma cells [2]; 24 h): decreases cell invasion in dose dependent manner

Cc1c2oc3c(C)ccc(C(=O)N[C@@H]4C(=O)N[C@H](C(C)C)C(=O)N5CCC[C@H]5C(=O)N(C)CC(=O)N(C)[C@@H](C(C)C)C(=O)O[C@@H]4C)c3nc-2c(C(=O)N[C@@H]2C(=O)N[C@H](C(C)C)C(=O)N3CCC[C@H]3C(=O)N(C)CC(=O)N(C)[C@@H](C(C)C)C(=O)O[C@@H]2C)c(N)c1=O [Actinomycin D] (I: T[dV]P[Sar][NMeV] / II: T[dV]P[Sar][NMeV]; ester I:1-I:C, II:1-II:C; linker I:N-II:N via Actinocin(9to1))
increase of p53 promoter activity (p53): comparable to metformin 10 mM

CC(C)[C@H](NC(=O)c1ccc2ccccc2n1)C(=O)N[C@@H](CC(=O)O)C(=O)COc1c(F)cccc1F [QVD]
cell invasion into collagen (WM9 melanoma cells; spheroids embedded in collagen): contrary to QVD alone, association of QVD with metformin block invasion

CN(C)C(=N)N=C(N)N [metformin]
cell invasion [3]: significant inhibition of cell invasion | micro-metastases in the lungs (extravasation) (1205Lu melanoma cells [4]): much more micro-metastases in the lungs than 1205Lu cells treated by metformin | cell invasion into collagen (WM9 melanoma cells; in presence of apoptosis inhibitor QVD): block invasion | cell invasion into collagen (WM9 melanoma cells; spheroids embedded in collagen): significantly reduced cell invasion into collagen | cell death (melanomas cells): induced cell death of melanomas cells | decrease of total MMP activities (total MMP activity): approximately 30% | N-cadherin expression ([5]; 24 h): decrease | SPARC expression ([5]; 24 h): inhibited in a dose dependent manner | Slug level ([5]; 24 h): decrease | Snail level ([5]; 24 h): also decrease | fibronectin expression ([5]; 24 h): decrease | vimentin expression ([5]; 24 h): not modified | N-cadherin expression ([5]; 24 h, listed as Metformin): inhibited in a dose dependent manner | Slug level ([5]; 24 h, listed as Metformin): also decrease | fibronectin expression ([5]; 24 h, listed as Metformin): inhibited in a dose dependent manner | Slug downregulation [5, 12]: prevent downregulation of Slug | cell invasion, dose dependence (A375 melanoma cells [1]): decreases cell invasion in dose dependent manner | inhibition at 10000 µM (A375 melanoma cells [1]; Homo sapiens, A-375, 10 mM, read-out: inhibition of cell invasion): 90% | metformin-stimulated phosphorylation of Acetyl-CoA carboxylase (ACC) (AMPK; cells infected by AdAMPK DN α1 and α2): abolished | Slug and SPARC expression (AMPK; cells infected with Ad control): inhibited | Slug and SPARC expression (AMPK; expression of AMPK DN constructs): abrogates these inhibitory effects | cell migration (wound healing) (A375 melanoma cells [6]): Results were confirmed | cell migration (A375 melanoma cells [7]): do not inhibit migration | cell migration (wound healing) (1205Lu melanoma cells [8]): Results were confirmed | increase in bioluminescence intensity in lungs of vehicle-treated mice compared to metformin-treated mice ([9]; 7 days after cell injection, intraperitoneal, 2 mg/mouse/day): 3 fold | bioluminescence intensity in lungs ([9]; after 39 day, intraperitoneal, 2 mg/mouse/day): very weak | Slug staining in sections of lung tumors ([9]; immunofluorescent staining, vs vehicle): significant decrease in Slug staining | cell migration (1205Lu melanoma cells [10]): do not inhibit migration | MMP-2 activity (MMP-2; 5 mM): important diminution | decrease of MMP-2 activity (MMP-2; 10 mM): 80% | MMP-9 activity (MMP-9; 5 mM): important diminution | decrease of MMP-9 activity (MMP-9; 10 mM): 45% | cell invasion, dose dependence (1205Lu melanoma cells [2]; 24 h): decreases cell invasion in dose dependent manner | inhibition at 10000 µM (1205Lu melanoma cells [2]; Homo sapiens, 1205Lu, 10 mM, 24 h, read-out: inhibition of cell invasion): 95% | inhibition of invasion (1205Lu melanoma cells [2]; [12]): prevent downregulation of Slug and inhibition of invasion | inhibition of invasion (1205Lu melanoma cells [2]; in presence of dominant negative forms of AMPK): abolished | decrease in Slug and N-cadherin expressions [11]: restored

[H]/N=C(/N)N/C(=N/[H])NCCc1ccccc1 [phenformin]
cell invasion, dose dependence (A375 melanoma cells [1]): decreases cell invasion in dose dependent manner | cell invasion, dose dependence (1205Lu melanoma cells [2]; 24 h): decreases cell invasion in dose dependent manner

Oc1ccc(/C=C/c2cc(O)cc(O)c2)cc1 [resveratrol, 3,5,4′-trihydroxy-trans-stilbene]
cell invasion, dose dependence (A375 melanoma cells [1]): decreases cell invasion in dose dependent manner | cell invasion, dose dependence (1205Lu melanoma cells [2]; 24 h): decreases cell invasion in dose dependent manner
